Test results: ChEMBL document CHEMBL4359869, “A new GSH-responsive prodrug of 5-aminolevulinic acid for photodiagnosis and photodynamic therapy of tumors” (Eur J Med Chem, 2019)
Calls of active or inactive are those of the source. The rule behind the calls is not given here.

Legend:
[1] = Prodrug activation in human HeLa cells assessed as GSH-mediated PpIX production at 10 to 1000 uM incubated for 4 hrs by fluorescence based assay; assay type: cell-based
HeLa [2] = test: Cytotoxicity against human HeLa cells assessed as cell viability at 10 to 1000 uM incubated for 4 hrs followed by LED light array irradiation followed by further incubation for 24 hrs by MTT assay; assay type: functional, cell-based
HeLa [3] = test: Cytotoxicity against human HeLa cells assessed as cell viability at 10 to 1000 uM incubated for 4 hrs measured under dark conditions by MTT assay; assay type: cell-based
[4] = Prodrug activation in human HeLa cells assessed as increase in GSH-mediated PpIX production at 100 uM incubated for 4 hrs by fluorescence imaging analysis; assay type: cell-based
A549 [5] = test: Cytotoxicity against human A549 cells assessed as reduction in cell viability incubated for 4 hrs followed by LED light array irradiation followed by further incubation for 24 hrs by MTT assay; assay type: functional, cell-based
A-375 [6] = test: Cytotoxicity against human A375 cells assessed as reduction in cell viability incubated for 4 hrs followed by LED light array irradiation followed by further incubation for 24 hrs by MTT assay; assay type: functional, cell-based
HCT-116 [7] = test: Cytotoxicity against human HCT116 cells assessed as reduction in cell viability incubated for 4 hrs followed by LED light array irradiation followed by further incubation for 24 hrs by MTT assay; assay type: functional, cell-based
[8] = Chemical stability of the compound in buffer at 1M at pH 7.4 by HPLC analysis; assay type: physicochemical
[9] = Prodrug activation in human HeLa cells assessed as increase in GSH-mediated PpIX production at 100 uM incubated for 4 hrs by fluorescence based assay relative to 5-ALA-OMe; assay type: cell-based
[10] = Chemical stability of the compound in buffer at 1M at pH 9 by HPLC analysis; assay type: physicochemical
[11] = Chemical stability of the compound in buffer at 1 M at pH 4 to 9 measured after 24 hrs by HPLC analysis; assay type: physicochemical; conditions: pH 4, 24 h
HCT-116 [12] = test: Photosensitization activity against human HCT116 cells assessed as cell viability at 100 uM incubated for 4 hrs followed by LED light array irradiation followed by further incubation for 24 hrs by MTT assay; assay type: functional; conditions: HCT-116, light or radiation study, read-out: Activity
[13] = Prodrug activation in human A549 cells assessed as increase in GSH-mediated PpIX production at 100 to 300 uM incubated for 4 hrs by fluorescence based assay; assay type: cell-based; conditions: a549, 4 h
HeLa [14] = test: Potency index, ratio of 5-ALA-OMe IC50 to compound IC50 for photosensitization activity against human HeLa cells by MTT assay; assay type: functional
[15] = Prodrug activation in human HeLa cells assessed as increase in GSH-mediated PpIX production at 300 to 1000 uM incubated for 4 hrs by fluorescence based assay; assay type: cell-based
[16] = Prodrug activation in human A549 cells assessed as increase in GSH-mediated PpIX production at 100 uM incubated for 4 hrs by fluorescence based assay relative to 5-ALA-OMe; assay type: cell-based; conditions: a549, 4 h
[17] = Prodrug activation in human A375 cells assessed as increase in GSH-mediated PpIX production at 100 uM incubated for 4 hrs by fluorescence based assay relative to 5-ALA; assay type: cell-based; conditions: a-375, 4 h
HeLa [18] = test: Potency index, ratio of 5-ALA IC50 to compound IC50 for photosensitization activity against human HeLa cells by MTT assay; assay type: functional
[19] = n-octanol/water partition coefficient, log P of the compound at 1M incubated for 0.5 hrs by HPLC analysis; assay type: physicochemical
[20] = Prodrug activation in human HCT116 cells assessed as increase in GSH-mediated PpIX production at 500 to 1000 uM incubated for 4 hrs by fluorescence based assay; assay type: cell-based; conditions: hct-116, 4 h
A-375 [21] = test: Photosensitization activity against human A375 cells assessed as cell viability at 100 uM incubated for 4 hrs followed by LED light array irradiation followed by further incubation for 24 hrs by MTT assay; assay type: functional; conditions: A-375, light or radiation study, read-out: Activity
HeLa [22] = test: Cytotoxicity against human HeLa cells assessed as reduction in cell viability at 300 to 1000 uM incubated for 4 hrs measured under dark conditions by MTT assay; assay type: cell-based
HeLa [23] = test: Cytotoxicity against human HeLa cells assessed as reduction in cell viability at 10 to 300 uM incubated for 4 hrs measured under dark conditions by MTT assay; assay type: cell-based
[24] = Prodrug activation in human A375 cells assessed as increase in GSH-mediated PpIX production at 500 to 1000 uM incubated for 4 hrs by fluorescence based assay; assay type: cell-based; conditions: a-375, 4 h
[25] = Prodrug activation in human HeLa cells assessed as increase in GSH-mediated PpIX production at 100 uM incubated for 4 hrs by fluorescence based assay relative to 5-ALA; assay type: cell-based
[26] = Prodrug activation in human A375 cells assessed as increase in GSH-mediated PpIX production at 100 to 300 uM incubated for 4 hrs by fluorescence based assay; assay type: cell-based; conditions: a-375, 4 h
[27] = Prodrug activation in PBS buffer assessed as GSH-mediated cleaved product C-SA formation at 0.5 mM incubated for 1 hr measured at 37 degC and pH 7.4 in presence of 10 mM GSH by ESI-MS spectrometry; conditions: pH 7.4, 1 h, 500 µM
HeLa [28] = test: Photosensitization activity against human HeLa cells assessed as reduction in cell viability incubated for 4 hrs followed by LED light array irradiation followed by further incubation for 24 hrs by MTT assay; assay type: functional, cell-based; conditions: light or radiation study
[29] = Prodrug activation in human A549 cells assessed as increase in GSH-mediated PpIX production at 500 to 1000 uM incubated for 4 hrs by fluorescence based assay; assay type: cell-based; conditions: a549, 4 h
[30] = Prodrug activation in human HCT116 cells assessed as increase in GSH-mediated PpIX production at 100 uM incubated for 4 hrs by fluorescence based assay relative to 5-ALA; assay type: cell-based; conditions: hct-116, 4 h
[31] = Prodrug activation in human HCT116 cells assessed as increase in GSH-mediated PpIX production at 100 to 300 uM incubated for 4 hrs by fluorescence based assay; assay type: cell-based; conditions: hct-116, 4 h
A549 [32] = test: Cytotoxicity against human A549 cells assessed as reduction in cell viability at 500 to 1000 uM incubated for 4 hrs measured under dark conditions by MTT assay; assay type: cell-based; conditions: a549, 4 h
[33] = Prodrug activation in human HeLa cells assessed as increase in GSH-mediated PpIX production at 100 uM incubated for 4 hrs pretreated for 1 hr with 1 mM intracellular GSH depletor, DEM by fluorescence imaging analysis; assay type: cell-based
A-375 [34] = test: Cytotoxicity against human A375 cells assessed as reduction in cell viability at 500 to 1000 uM incubated for 4 hrs measured under dark conditions by MTT assay; assay type: cell-based; conditions: a-375, 4 h
[35] = Prodrug activation in human HeLa cells assessed as increase in GSH-mediated PpIX production at 10 to 300 uM incubated for 4 hrs by fluorescence based assay; assay type: cell-based
[36] = Chemical stability of the compound in buffer at 1M at pH 4 by HPLC analysis; assay type: physicochemical
HCT-116 [37] = test: Cytotoxicity against human HCT116 cells assessed as reduction in cell viability at 500 to 1000 uM incubated for 4 hrs measured under dark conditions by MTT assay; assay type: cell-based; conditions: hct-116, 4 h
HeLa [38] = test: Photosensitization activity against human HeLa cells assessed as cell viability at 100 uM incubated for 4 hrs followed by LED light array irradiation followed by further incubation for 24 hrs by MTT assay; assay type: functional
[39] = Prodrug activation in human A549 cells assessed as increase in GSH-mediated PpIX production at 100 uM incubated for 4 hrs by fluorescence based assay relative to 5-ALA; assay type: cell-based; conditions: a549, 4 h
[40] = Prodrug activation in human HCT116 cells assessed as increase in GSH-mediated PpIX production at 100 uM incubated for 4 hrs by fluorescence based assay relative to 5-ALA-OMe; assay type: cell-based; conditions: hct-116, 4 h
A549 [41] = test: Photosensitization activity against human A549 cells assessed as cell viability at 100 uM incubated for 4 hrs followed by LED light array irradiation followed by further incubation for 24 hrs by MTT assay; assay type: functional; conditions: A549, light or radiation study, read-out: Activity
[42] = Prodrug activation in human A375 cells assessed as increase in GSH-mediated PpIX production at 100 uM incubated for 4 hrs by fluorescence based assay relative to 5-ALA-OMe; assay type: cell-based; conditions: a-375, 4 h
[43] = Prodrug activation in human HeLa cells assessed as increase in GSH-mediated PpIX production at 300 uM incubated for 4 hrs by fluorescence based assay; assay type: cell-based
[44] = Prodrug activation in human HeLa cells assessed as increase in GSH-mediated PpIX production at 1000 uM incubated for 4 hrs by fluorescence based assay; assay type: cell-based

COC(=O)CCC(=O)CNC(=O)OCCCCCCOC(=O)NCC(=O)CCC(=O)OC
Drug metabolism [1]: Metabolite_Notdetected
inhibition (HeLa [2]): inactive
Activity (HeLa [3]): Non-Toxic
Drug metabolism [4]: Metabolite_Notdetected
inhibition (A549 [5]): inactive
inhibition (A-375 [6]): inactive
inhibition (HCT-116 [7]): inactive

COC(=O)CCC(=O)CNC(=O)OCCSSCCOC(=O)NCC(=O)CCC(=O)OC
Stability [8]: Stable
fold change (FC) [9]: 70
Stability [10]: Stable
Stability [11]: Stable
viability at 100 µM (HCT-116 [12]): 13%
Drug metabolism [13]: Metabolite_Detected
Ratio IC50 (HeLa [14]): 12
Drug metabolism [15]: Metabolite_Detected
fold change (FC) [16]: 84
fold change (FC) [17]: 3 to 40
Ratio IC50 (HeLa [18]): 4
logP at 0.5 h [19]: 0.84
Drug metabolism [20]: Metabolite_Detected
viability at 100 µM (A-375 [21]): 14%
Activity (HeLa [22]): Toxic
Activity (HeLa [23]): Toxic
Drug metabolism [4]: Metabolite_Detected
Drug metabolism [24]: Metabolite_Detected
fold change (FC) [25]: 20
Drug metabolism [26]: Metabolite_Detected
Drug metabolism [27]: Metabolite_Detected
IC50 (HeLa [28]): 62 µM
Drug metabolism [29]: Metabolite_Detected
fold change (FC) [30]: 3 to 40
Drug metabolism [31]: Metabolite_Detected
Activity (A549 [32]): Toxic
Drug metabolism [33]: Metabolite_Detected
Activity (A-375 [34]): Toxic
Drug metabolism [35]: Metabolite_Detected
Stability [36]: Stable
Activity (HCT-116 [37]): Toxic
viability at 100 µM (HeLa [38]; light or radiation study, read-out: Activity): 30%
fold change (FC) [39]: 3 to 40
fold change (FC) [40]: 28
viability at 100 µM (A549 [41]): 16%
fold change (FC) [42]: 43

NCC(=O)CCC(=O)O [AMINOLEVULINIC ACID]
Stability [8]: Unstable
Stability [10]: Unstable
viability at 100 µM (HCT-116 [12]): > 80%
Drug metabolism [13]: Metabolite_Detected
Activity (HeLa [3]): Non-Toxic
logP at 0.5 h [19]: -1.52
viability at 100 µM (A-375 [21]): 60%
Drug metabolism [43]: Metabolite_Detected
Drug metabolism [4]: Metabolite_Notdetected
Drug metabolism [26]: Metabolite_Detected
IC50 (HeLa [28]): 230 µM
Drug metabolism [31]: Metabolite_Detected
Drug metabolism [35]: Metabolite_Detected
Stability [36]: Stable
Activity (HeLa [38]): inactive
viability at 100 µM (A549 [41]): > 80%

COC(=O)CCC(=O)CN [METHYL AMINOLEVULINATE]
Stability [8]: Unstable
Drug metabolism [44]: Metabolite_Detected
Stability [10]: Unstable
viability at 100 µM (HCT-116 [12]): > 80%
Drug metabolism [13]: Metabolite_Detected
Activity (HeLa [3]): Non-Toxic
logP at 0.5 h [19]: -0.94
viability at 100 µM (A-375 [21]): > 80%
Drug metabolism [4]: Metabolite_Notdetected
Drug metabolism [26]: Metabolite_Detected
IC50 (HeLa [28]): 763 µM
Drug metabolism [31]: Metabolite_Detected
Drug metabolism [35]: Metabolite_Detected
Stability [36]: Stable
Activity (HeLa [38]): inactive
viability at 100 µM (A549 [41]): > 80%
